Read-outs that look alike come from different tables or passages of the source. One block for each compound: values may come before it.
Key:
htt103Q-EGFP = experiment: PC12 htt103Q-EGFP fluorescence assay; type: cell-based; conditions: PC12 cells
Source text: A PC12 cell line was engineered to express extended polyQ under the control of an ecdysone-inducible promoter. In the assay cell line, an N-terminal fragment of htt containing an extended polyQ tract was stably expressed as a fusion with EGFP (htt103Q-EGFP), from the pIND vector. Expression of extended polyQ in these cells was controlled by addition of an ecdysone analog, in this case muristerone A. In this assay, EGFP fluorescence directly correlated with htt103Q-EGFP expression levels. This system was designed to assess the effects of specific compounds on overall levels of extended polyglutamines in cells, using a simple fluorescent-based read-out.

[1] = system: aggregation of 103Q in PC12 cells; experiment: polyQ (103Q) aggregation in ecdyson-inducible PC12 cells; type: cell-based, rat; conditions: Rattus norvegicus, PC-12
Protocol: To study the inhibitors we identified using the yeast screen in mammalian cells, we employed ecdyson-inducible rat phaeochromocytoma (PC12) cells. Compounds were tested in two clones, 14A2/5 and 14A2/6, with highest aggregation rate. We incubated undifferentiated PC12 cells with muristerone A to induce 103Q expression, and we exposed the cells to compounds at concentrations ranging from 1 to 10 μM. […] All compounds were non-toxic except C2, which was toxic at concentrations higher than 5 μM.
We tested these analogs at concentrations ranging from 0.025 μM to 5.0 μM for their effects on polyQ aggregation in PC12 cells. Among 24 analogs of C1; 28 analogs of C2; 24 analogs of C3, and 53 analogs of C4, we identified several potent inhibitors of polyQ aggregation. From our C2 focus library, we isolated compound C2-8 (B2 in Table 2), which inhibits polyQ aggregation with an IC50 value 50 nM. We also identified C2-10 (B6 in Table 2) and C2-11 (M16 (formula V(n)) in Table 5), and B7, B8 and B9 in Table 2. From our C3 focus library, we isolated compound C3-5 (M22 (formula V(t)) in Table 5) (having an IC50 value of 100 nM) and compound C3-6 (M17 (formula V(o)) in Table 5) (having an IC50 value of 5 μM). From our C4 library, we isolated compound C4-7 (A31 in Table 1), which has an IC50 value 100 nM. We also identified C4-34 (A3 in Table 1).

[2] = system: HD Q51 aggregates in Cos1 cells; experiment: HD Q51 aggregation in transfected Cos1 cells, cellulose acetate membrane trap; type: cell-based; conditions: Chlorocebus aethiops, COS-1; Cos1 cells transfected with HD Q51; read-out: IC50, polyQ aggregation (retained polyQ on membrane)
Protocol: The inhibitory activity we observed with C1-C4 in the PC12 cell model described above was confirmed in Cos1 cells transiently transfected with a CMV promoter-based DNA construct that encodes an Htt exon I fragment of Huntington's disease protein (Htt)) having 51 consecutive glutamine residues (HD Q51). When expressed in Cos1 cells, HD 51Q polypeptides readily form aggregates. Transfected Cos1 cells were incubated with C1-C4 compounds in culture medium and lysed. The lysates were then heat-denatured in SDS and passed through a cellulose acetate membrane, which captures aggregated, but not soluble polypeptides. Polyglutamine aggregates trapped on membranes were detected by immunostaining with antibody specific to extended polyQ. Pre-incubation of cells with compounds C1, C3, and C4 decreased the amount of retained polyQ, indicating inhibitory effects on polyQ aggregation. The IC50 for compound C1 was 10 μM and the IC50 for compounds C3 and C4 was 5 μM. As C2 was toxic for Cos1 cells, its effect on aggregation was not determined.

[3] = system: mutant Huntingtin transgene (htt); experiment: transgene (mutant htt, extended polyQ) expression in inducible PC12 cells; type: cell-based, rat; conditions: PC12 cells, with scriptaid
Source text: (§1) The compound C9 (A33 in Table 1) has structural similarity to the histone deacetylase (HDAc) inhibitor, scriptaid (6-(1,3-Dioxo-1H,3H-benzo[de]isoquinolin-2-yl)-N-hydroxyhexanamide) (Su et al., Cancer Res. 60:3137, 2000; A5 in Table 1). We observed the most dramatic effect on expression level by C9 and scriptaid in the PC12 cell line 14A2/6 expressing the extended polyQ mutant htt(104Q). The effect of C9 on the down-regulation of polyQ expression, was similar to cystamine, a drug that has shown efficacy in a mouse model for Huntington's Disease (HD). […] 14A2/6 cells were at least 5-fold more responsive to chemical treatment than other cell lines tested.
Transcriptional dysregulation is a hallmark of HD. […] Expression of the polypeptide was under control of an inducible ecdysone receptor (EcR)-based promoter.

PC12 cells = experiment: rescue from scriptaid-dependent synthetic lethality in PC12 cells; type: cell-based, rat
Source text: as §1

R2/6 HD mice = conditions: cited from earlier work
cells = experiment: nonspecific toxicity to cells; type: cell-based
[4] = system: SP1 trancription factor binding motif (6XSP1) promoter; experiment: 6XSP1 luciferase transcription-based assay in 111Q/111Q striatum double knock-in cells; type: cell-based, mouse; conditions: 6XSP1 luciferase reporter; for transcription activation: CG4 among CG series, less potent than C9-4
Protocol: FIGS. 1A-1C. FIG. 1A is a bar graph showing luciferase expression in Sp1-luc/111Q striatum double knock-in cells following treatment with different compounds, as indicated. Fluorescence was measured 24 hours after addition of compound. FIG. 1B is a bar graph as described in FIG. 1A. Fluorescence was measured 48 hours after addition of compound. FIG. 1C is a bar graph as described in FIG. 1A. Fluorescence was measured 72 hours after addition of compound.
We conducted structure activity relationship (SAR) studies to optimize transcription activation. We developed a novel transcription-based assay for this purpose. A luciferase reporter gene was stably integrated into 111Q/111Q striatum double knock-in cells and constitutively expressed under control of a promoter containing six copies of the SP1 trancription factor binding motif (6XSP1). In this system, C9 was determined to have an EC200 of 7.5 μM.

HDAc = HDAc activity; type: biochemical; conditions: at high concentrations; down-regulation of HDAc 5
[5] = system: polyQ-containing polypeptides; experiment: aggregation of polyQ-containing polypeptides, assay not specified
[6] = biological target: T1, Recombinant HD Q51 polypeptide (Homo sapiens, UniProt P42858, INS38QQQQQQQQQQQQQQQQQQQQQQQQQQQQQQ); experiment: cell-free trap assay of purified polyQ; type: biochemical; conditions: cell-free trap assay; read-out: IC50, aggregation of purified polyQ
T1 construct: made in house
Protocol: To determine whether C2 could directly interfere with polyQ aggregation, we reproduced this process in vitro and assayed the inhibitory effects of the compounds in a cell-free trap assay. Recombinant HD Q51 polypeptide, purified from bacteria, was incubated in the presence or in the absence of C2 for a time sufficient to allow aggregation. Then, upon heat-denaturation in SDS buffer, samples were filtered through a cellulose acetate membrane. Harsh denaturation conditions separated unaggregated soluble peptides, which passed through the membrane, and insoluble aggregates, which were retained on the membrane. The polyQ aggregates trapped on the membrane were subsequently immunostained and quantified.
Congo Red, which is structurally unrelated to C2-8, was used as a control.

[7] = system: polyQ aggregates (HD Q150) in neurons of R6/2 mouse brain slices; experiment: polyQ aggregation in R6/2 brain slice cultures; type: cell-based; conditions: 3-week time point
Protocol: The effects of the selected compounds on polyQ aggregation in neuronal tissues were assessed in brain slice cultures from the transgenic mouse R6/2 model of HD. R6/2 mice ubiquitously express human Huntingtin exon I containing 150Q (HD Q150), which causes neuropathology resembling key neurological changes in HD patients. Formation of neuronal polyQ aggregates precedes pathological behavioural changes in R6/2 mice. An organotypic slice culture assay has been developed in order to establish an ex vivo system that closely models the process of aggregation occurring in R6/2 mouse brains. […] The potency of any aggregate inhibitor can be assessed directly in neurons in brain slices (thus bypassing the blood brain barrier, the major obstacle to test compounds in neuronal tissues).
Aggregation in brain slice cultures was assessed during four weeks using three parameters: (1) the number of aggregates per square millimeter, (2) the density of individual aggregates, and (3) the size of the aggregates. These parameters can be assessed in any of the assays described herein. […] To obtain statistically significant data, 20 sections for each sample were quantified with a macro computer program (Paul Wetton at Image Associates, UK), which measured aggregate count, aggregate density and aggregate size. […]

[8] = PC12 cells, focus library analogs, 0.025 μM to 5.0 μM, read-out: IC50, polyQ aggregation
[9] = PC12 clones 14A2/5 and 14A2/6, muristerone A induced, 1 to 10 μM, read-out: IC50, aggregation of 103Q

T1 sequence (P42858 with tags, fused parts or gaps with the stated changes): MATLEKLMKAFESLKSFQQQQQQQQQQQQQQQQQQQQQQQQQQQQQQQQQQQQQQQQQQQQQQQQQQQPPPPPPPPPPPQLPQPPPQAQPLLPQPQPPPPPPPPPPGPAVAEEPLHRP

SMILES: CCOC(=O)c1sc(NC(=O)c2cc(S(N)(=O)=O)c(Cl)cc2Cl)c(C(=O)OCC)c1C [Compound D4, 5-(2,4-Dichloro-5-sulfamoyl-benzoylamino)-3-methyl-thiophene-2,4-dicarboxylic acid diethyl ester]
effect on protein aggregation (htt103Q-EGFP): inhibit protein aggregation

IC50 [1, 8]: 0.1 µM
SMILES: O=C1c2cccc3c(N4CCCCC4)ccc(c23)C(=O)N1CO [Compound C4-7, 2-Hydroxymethyl-6-piperidin-1-yl-benzo[de]isoquinoline-1,3-dione]

IC50 [1, 9]: 10 µM
SMILES: CN(C)CCN1C(=O)c2ccc(Cl)c3c(Cl)ccc(c23)C1=O [Compound C1, 6,7-Dichloro-2-(2-dimethylamino-ethyl)-benzo[de]isoquinoline-1,3-dione]
IC50 [2]: 10 µM

SMILES: NCCSSCCN [cystamine, reference compound]
effect on scriptaid-stimulated expression and aggregation [3]: reversed the stimulatory effect | rescue from scriptaid-dependent synthetic lethality (PC12 cells): rescued | protein aggregation (R2/6 HD mice): blocked protein aggregation | survival (R2/6 HD mice): prolonged the survival

SMILES: CCN(CC)C(=O)c1sc(NC(=O)c2ccc(F)cc2)c(C(=O)OC(C)C)c1C [Compound D3, 5-Diethylcarbamoyl-2-(4-fluoro-benzoylamino)-4-methyl-thiophene-3-carboxylic acid isopropyl ester]
effect on protein aggregation (htt103Q-EGFP): facilitators of protein aggregation

SMILES: CN(C)CCN1C(=O)c2cccc3cccc(c23)C1=O [Compound C9-1B, 2-(2-Dimethylamino-ethyl)-benzo[de]isoquinoline-1,3-dione]
range of weak nonspecific toxicity (cells): 1.25 to 5.0 µM | EC200, transcription activation [4]: 50 nM

SMILES: O=C1c2cccc3cccc(c23)C(=O)N1CCN1CCCCC1 [Compound C9-4, 2-(2-Piperidin-1-yl-ethyl)-benzo[de]isoquinoline-1,3-dione]
HDAc inhibitory activity (HDAc): indirect HDAc inhibitory activity

IC50 [1, 8]: 5 µM
SMILES: c1ccc(-c2nc3cnc4ccccc4c3s2)cc1 [Compound C3-6, 2-Phenyl-thiazolo[4,5-c]quinoline]

IC50 [1, 9]: 2.5 µM
SMILES: O=C1c2cccc3c(N4CCOCC4)ccc(c23)C(=O)N1Cc1ccccc1 [Compound C4, 2-Benzyl-6-morpholin-4-yl-benzo[de]isoquinoline-1,3-dione]
IC50 [2]: 5 µM

SMILES: CN(C)CCCN1C(=O)c2cccc3cccc(c23)C1=O [Compound C91, 2-(3-Dimethylamino-propyl)-benzo[de]isoquinoline-1,3-dione]
effect on aggregation [5]: facilitate protein-protein aggregation | EC200, transcription activation [4]: 4000 nM

SMILES: CCN1C(=O)c2cccc3c(NC(C)=O)ccc1c23 [CG4, N-(1-Ethyl-2-oxo-1,2-dihydro-benzo[cd]indol-6-yl)-acetamide]
transcription activation [4]: most potent transcriptional activator

IC50 [1, 9]: 5 µM
SMILES: CC/C(=C/c1sc2ccc3ccccc3c2[n+]1CCCS(=O)(=O)[O-])SC [Compound C3, 3-[2-(2-Methylsulfanyl-but-1-enyl)-naphtho[1,2-d]thiazol-1-yl]-propane-1-sulfonic acid anion]
IC50 [2]: 5 µM

IC50 [1, 8]: 0.05 µM | IC50 [6]: 25 µM
SMILES: O=C(Nc1ccc(Br)cc1)c1cccc(S(=O)(=O)Nc2ccc(Br)cc2)c1 [Compound C2-8, N-(4-Bromo-phenyl)-3-(4-bromo-phenylsulfamoyl)-benzamide]
concentration inhibiting aggregates intensity and area [7]: 10 µM

SMILES: O=C1c2cccc3cccc(c23)C(=O)N1CCNCO [Compound C9-3, 2-[2-(Hydroxymethyl-amino)-ethyl]-benzo[de]isoquinoline-1,3-dione]
transcription activation [4]: did not effectively activate transcription
